The results in this text go back to US20120157471A1, “BENZIMIDAZOLE DERIVATIVES” (PFIZER INC., priority 2009, published 2012).

For one test, the system named is Gli-Luc/MEF cells (Smo). The experiment in a line: Gli-Luc/MEF assay (Shh-stimulated luciferase reporter under the Gli response element). Type of test: cell-based, mouse. The method in brief:
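Mouse Gli-Luc/MEF cells dosed with compound (3-fold series, […]) plus 2 μg/mL recombinant mouse Shh, then incubated 48 h at 37° C, 5% CO2. Bright-Glo luminescence read; IC50 calculated from inhibition of Shh-stimulated luciferase.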
In general terms: In a reporter assay the amount or activity of a reporter protein is the signal.

Test [1] has as its target T1, human Smo (amino acids 181-787) (Homo sapiens, UniProt Q99835).
T1 construct: expressed in transfected cells; membrane preparation
Kind of test: Smo radioligand competition binding assay (displacement of 3H-PF-03451358 from HEK293 membranes). To be noted: for IC50: radioligand competition binding; for inhibition at 0.05 µM: read-out: SMO % inh. @ 0.05 μM. The method in brief: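 Membranes (40 μg protein/well) from HEK293 expressing murine Igk-leader-fused Smo 181-787 incubated 2 h at room temperature with 3 nM 3H-PF-03451358 in Tris pH 7.5/NaCl/MgCl2/EDTA/BSA buffer; filter-bound counts by scintillation. Nonspecific binding with 30 μM cold PF-03451358; IC50 from four-parameter fit of % inhibition.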
(In general: Loss of bound radioactivity is the signal in a displacement assay; it reports binding, not function.)

[2] abbreviates: 0.05 μM test compound, displacement of 3H-PF-03451358.

T1 sequence (Q99835 181-787): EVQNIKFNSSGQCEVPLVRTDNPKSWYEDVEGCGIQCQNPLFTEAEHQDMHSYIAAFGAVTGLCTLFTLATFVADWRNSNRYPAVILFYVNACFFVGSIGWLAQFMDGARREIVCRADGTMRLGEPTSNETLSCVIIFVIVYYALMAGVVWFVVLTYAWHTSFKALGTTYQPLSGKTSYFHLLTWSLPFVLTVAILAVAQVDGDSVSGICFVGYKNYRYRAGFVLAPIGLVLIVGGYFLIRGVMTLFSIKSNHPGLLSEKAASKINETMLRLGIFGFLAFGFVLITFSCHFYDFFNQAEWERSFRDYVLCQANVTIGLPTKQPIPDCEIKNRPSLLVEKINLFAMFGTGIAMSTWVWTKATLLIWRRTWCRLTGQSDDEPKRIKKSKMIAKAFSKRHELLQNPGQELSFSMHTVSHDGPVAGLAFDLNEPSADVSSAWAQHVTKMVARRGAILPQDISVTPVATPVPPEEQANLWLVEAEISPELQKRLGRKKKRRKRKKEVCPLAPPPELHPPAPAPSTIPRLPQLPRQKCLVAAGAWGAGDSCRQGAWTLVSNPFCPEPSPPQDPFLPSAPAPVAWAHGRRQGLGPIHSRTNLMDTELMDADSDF

As to `Cn1c(-c2cc(N3CCN(CCS(C)(=O)=O)CC3)ncc2Cl)nc2ccccc21` [Example A-61, 2-(5-chloro-2-{4-[2-(methylsulfonyl)ethyl]piperazin-1-yl}pyridin-4-yl)-1-methyl-1H-benzimidazole], the IC50 (as a rule, the concentration needed to halve the response being measured) in the test with Gli-Luc/MEF cells (Smo) (48 hours) is 73 nM; in test [1], 18 nM. In test [1] (0.05 μM test compound, displacement of 3H-PF-03451358, 0.05 µM), the “SMO % inh. @ 0.05 μM” value came to 96%.
Consider `CC(=O)NCC1CCCN(c2cc(-c3nc4ccccc4n3C)c(Cl)cn2)C1` (stereo not drawn) [Example A-62, N-({1-[5-chloro-4-(1-methyl-1H-benzimidazol-2-yl)pyridin-2-yl]piperidin-3-yl}methyl)acetamide], for which the IC50 in the test on Gli-Luc/MEF cells (Smo) (Mus musculus, MEF, 48 h) amounted to 21 nM; in test [1], 24 nM. Further, the inhibition at 0.05 µM in test [1] (setting [2]) was 95%.
In the same order, the values of `Cn1c(-c2cc(N3CC[C@@H](O)[C@H](O)C3)ncc2Cl)nc2ccccc21` [Example A-63, (3R,4R)-1-[5-chloro-4-(1-methyl-1H-benzimidazol-2-yl)pyridin-2-yl]piperidine-3,4-diol] are 18 nM, 25 nM and 95%.
With `Cc1noc(C2CN(c3cc(-c4nc5ccccc5n4C)c(Cl)cn3)CCO2)n1` (stereo not drawn) [Example A-64, 2-{5-chloro-2-[2-(3-methyl-1,2,4-oxadiazol-5-yl)morpholin-4-yl]pyridin-4-yl}-1-methyl-1H-benzimidazole], the IC50 was 7 nM with Gli-Luc/MEF cells (Smo) (Mus musculus, MEF, 48 h) and 28 nM in test [1]. In addition, the inhibition at 0.05 µM in test [1] (setting [2]) came out at 95%.
The corresponding values for `Cn1c(-c2cc(N3CCC(CS(N)(=O)=O)CC3)ncc2Cl)nc2ccccc21` [Example A-65, 1-{1-[5-chloro-4-(1-methyl-1H-benzimidazol-2-yl)pyridin-2-yl]piperidin-4-yl}methanesulfonamide] are 2 nM, 6 nM and 95%.
`Cn1c(-c2cc(N3CCC(S(N)(=O)=O)CC3)ncc2Cl)nc2ccccc21` [Example A-66, 1-[5-chloro-4-(1-methyl-1H-benzimidazol-2-yl)pyridin-2-yl]piperidine-4-sulfonamide]: the IC50 with Gli-Luc/MEF cells (Smo) (Mus musculus, MEF, 48 h) came to 5 nM; in test [1] it was 14 nM. The inhibition at 0.05 µM in test [1] (setting [2]) is 94%.
As for `Cc1nnc2n1CCN(c1cc(-c3nc4ccccc4n3C)c(Cl)cn1)CC2` [Example A-67, 7-[5-chloro-4-(1-methyl-1H-benzimidazol-2-yl)pyridin-2-yl]-3-methyl-6,7,8,9-tetrahydro-5H-[1,2,4]triazolo[4,3-d][1,4]diazepine], the IC50 in the test on Gli-Luc/MEF cells (Smo) (Mus musculus, MEF, 48 h) was determined as 26 nM; in test [1], 33 nM. For the same molecule, in test [1] (setting [2]), the inhibition at 0.05 µM came to 94%.
Turning to `Cn1c(-c2cc(N3CCc4nnc(C5CC5)n4CC3)ncc2Cl)nc2ccccc21` [Example A-68, 7-[5-chloro-4-(1-methyl-1H-benzimidazol-2-yl)pyridin-2-yl]-3-cyclopropyl-6,7,8,9-tetrahydro-5H-[1,2,4]triazolo[4,3-d][1,4]diazepine], the concentration for half-maximal inhibition (IC50) amounted to 20 nM in the test with Gli-Luc/MEF cells (Smo) (Mus musculus, MEF, 48 h) and 21 nM in test [1]. Also, in test [1] (setting [2]), the inhibition at 0.05 µM amounted to 94%.
Take `Cn1c(-c2cc(N3CCC(O)(CO)CC3)ncc2Cl)nc2ccccc21` [Example A-69, 1-[5-chloro-4-(1-methyl-1H-benzimidazol-2-yl)pyridin-2-yl]-4-(hydroxymethyl)piperidin-4-ol]: the IC50 was found to be 10 nM in the test on Gli-Luc/MEF cells (Smo) (Mus musculus, MEF, 48 h) and 27 nM in test [1]. In addition, the inhibition at 0.05 µM in test [1] (setting [2]) was determined as 94%.
In the case of `CCn1nnnc1C1CN(c2cc(-c3nc4ccccc4n3C)c(Cl)cn2)CCO1` (stereo not drawn) [Example A-71, 2-{5-chloro-2-[2-(1-ethyl-1H-tetrazol-5-yl)morpholin-4-yl]pyridin-4-yl}-1-methyl-1H-benzimidazole], the IC50 turned out to be 10 nM with Gli-Luc/MEF cells (Smo) (Mus musculus, MEF, 48 h) and 18 nM in test [1]. Further, the inhibition at 0.05 µM in test [1] (setting [2]) is 94%.
In the same order, the values of `CN(CCS(C)(=O)=O)c1cc(-c2nc3ccccc3n2C)c(Cl)cn1` [Example A-72, 5-chloro-N-methyl-4-(1-methyl-1H-benzimidazol-2-yl)-N-[2-(methylsulfonyl)ethyl]pyridin-2-amine] are 12 nM, 25 nM and 94%.
